Laboratory results from PubChem BioAssay (NCI).
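A five-concentration, 48-hour dose response in 96-well plates underlies each endpoint, interpolated linearly between surrounding concentrations. At the GI50, growth is halved. TGI is the concentration that stops growth completely.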

What was measured:
Test in all cases: NCI-60 cell line screen, 48 h; in the data active = GI50 below about 0.43 µM; inactive = the rest
[1] = tested on: OVCAR-5 ovarian
[2] = tested on: SK-OV-3 ovarian
[3] = tested on: HCT-15 colon
[4] = tested on: LOX IMVI melanoma
[5] = tested on: COLO 205 colon
[6] = tested on: HT29 colon
[7] = tested on: OVCAR-3 ovarian
[8] = tested on: K-562 leukemia
[9] = tested on: SF-295 CNS
[10] = tested on: UO-31 renal
[11] = tested on: ACHN renal
[12] = tested on: SNB-19 CNS
[13] = tested on: IGROV1 ovarian
[14] = tested on: SK-MEL-2 melanoma
[15] = tested on: SR leukemia
[16] = tested on: OVCAR-4 ovarian
[17] = tested on: HOP-62 NSCLC
[18] = tested on: NCI-H460 lung
[19] = tested on: HS 578T breast
[20] = tested on: T-47D breast
[21] = tested on: SNB-75 CNS
[22] = tested on: BT-549 breast
[23] = tested on: HCT-116 colon
[24] = tested on: PC-3 prostate
[25] = tested on: RXF 393 renal
[26] = tested on: MCF7 breast
[27] = tested on: NCI/ADR-RES ovarian
[28] = tested on: HOP-92 NSCLC
[29] = tested on: NCI-H23 lung
[30] = tested on: SF-539 CNS
[31] = tested on: DU-145 prostate
[32] = tested on: HCC-2998 colon
[33] = tested on: A498 renal
[34] = tested on: NCI-H226 lung
[35] = tested on: SW-620 colon
[36] = tested on: TK-10 renal
[37] = tested on: SF-268 CNS
[38] = tested on: MDA-MB-231 breast
[39] = tested on: OVCAR-8 ovarian
[40] = tested on: CAKI-1 renal
[41] = tested on: U251 CNS
[42] = tested on: 786-0 renal
[43] = tested on: SN12C renal
[44] = tested on: CCRF-CEM leukemia
[45] = tested on: HL-60(TB) leukemia
[46] = tested on: SK-MEL-5 melanoma
[47] = tested on: M14 melanoma
[48] = tested on: A549 NSCLC
[49] = tested on: NCI-H522 lung
[50] = tested on: EKVX NSCLC
[51] = tested on: RPMI-8226 leukemia
[52] = tested on: UACC-257 melanoma
[53] = tested on: MDA-MB-435
[54] = tested on: SK-MEL-28 melanoma
[55] = tested on: MALME-3M melanoma
[56] = tested on: MOLT-4 leukemia
[57] = tested on: UACC-62 melanoma

Brc1cccc(/C=N/Nc2nc(N/N=C/c3cccc(Br)c3)nc(N3CCOCC3)n2)c1
64 µM: TGI [2]
8.92 µM: TGI [28]
inactive: GI50 [1] > 100 µM | GI50 [2] 14.7 µM | GI50 [4] 2.66 µM | GI50 [5] 1.24 µM | GI50 [6] 0.609 µM | GI50 [7] 3.81 µM | GI50 [9] 4.94 µM | GI50 [10] 1.01 µM | GI50 [11] 2.21 µM | GI50 [12] 12.9 µM | GI50 [13] 2.92 µM | GI50 [14] 2.43 µM | GI50 [16] 4.89 µM | GI50 [17] 8.07 µM | GI50 [18] 3.43 µM | GI50 [19] 3.6 µM | GI50 [20] 3.94 µM | GI50 [21] 4.54 µM | GI50 [22] 3.54 µM | GI50 [23] 0.78 µM | GI50 [24] 2.9 µM | GI50 [26] 2.64 µM | GI50 [27] 3.25 µM | GI50 [28] 1.24 µM | GI50 [29] 4.5 µM | GI50 [30] 3.83 µM | GI50 [31] 1.31 µM | GI50 [32] 3.06 µM | GI50 [34] 2.46 µM | GI50 [35] 0.825 µM | GI50 [36] 8.75 µM | GI50 [37] 8.4 µM | GI50 [38] 3.97 µM | GI50 [39] 5 µM | GI50 [40] 3.52 µM | GI50 [41] 4.22 µM | GI50 [42] 0.529 µM
58.7 µM: TGI [12]
active: GI50 [3] 0.423 µM | GI50 [8] 0.336 µM | GI50 [15] 0.16 µM | GI50 [25] 0.159 µM | GI50 [33] 0.137 µM
4.78 µM: TGI [42]
29.6 µM: TGI [21]
8.51 µM: TGI [34]
66.9 µM: TGI [22]
> 100 µM: TGI [1] | TGI [3] | TGI [4] | TGI [5] | TGI [6] | TGI [7] | TGI [8] | TGI [9] | TGI [10] | TGI [11] | TGI [13] | TGI [16] | TGI [18] | TGI [19] | TGI [20] | TGI [23] | TGI [24] | TGI [26] | TGI [27] | TGI [29] | TGI [30] | TGI [31] | TGI [32] | TGI [35] | TGI [36] | TGI [37] | TGI [38] | TGI [39] | TGI [40] | TGI [41]
6.47 µM: TGI [14]
2.29 µM: TGI [15]
1.95 µM: TGI [25]
4.26 µM: TGI [33]
55.6 µM: TGI [17]

COc1ccc(NC(=O)[C@H](C)NC(=O)OC(C)(C)C)cc1C(=O)Nc1cccc(-c2cc(=O)c3c(OC)c(OC)c(OC)cc3o2)c1
7.34 µM: TGI [43]
8.64 µM: TGI [35]
> 100 µM: TGI [8] | TGI [10] | TGI [11] | TGI [12] | TGI [13] | TGI [15] | TGI [16] | TGI [50] | TGI [24] | TGI [27] | TGI [31] | TGI [37] | TGI [40] | TGI [42]
5.24 µM: TGI [18]
3.37 µM: TGI [25]
7.27 µM: TGI [3]
inactive: GI50 [1] 2.01 µM | GI50 [2] 2.3 µM | GI50 [3] 2.38 µM | GI50 [4] 1.59 µM | GI50 [5] 1.87 µM | GI50 [43] 2.38 µM | GI50 [6] 1.88 µM | GI50 [7] 2.13 µM | GI50 [44] 1.86 µM | GI50 [45] 2.07 µM | GI50 [8] 2.55 µM | GI50 [10] 2.4 µM | GI50 [11] 3.34 µM | GI50 [12] 3.56 µM | GI50 [13] 3.25 µM | GI50 [14] 1.8 µM | GI50 [15] 2.37 µM | GI50 [16] 3.13 µM | GI50 [17] 2.14 µM | GI50 [46] 1.47 µM | GI50 [47] 2.98 µM | GI50 [18] 2.31 µM | GI50 [19] 2.64 µM | GI50 [20] 1.7 µM | GI50 [48] 2.94 µM | GI50 [49] 1.72 µM | GI50 [21] 1.46 µM | GI50 [22] 1.52 µM | GI50 [23] 2.05 µM | GI50 [50] 3.17 µM | GI50 [24] 2.95 µM | GI50 [25] 1.89 µM | GI50 [51] 1.55 µM | GI50 [26] 2.72 µM | GI50 [27] 8.01 µM | GI50 [52] 1.99 µM | GI50 [30] 1.88 µM | GI50 [31] 3.86 µM | GI50 [32] 1.76 µM | GI50 [33] 3.35 µM | GI50 [53] 2 µM | GI50 [34] 1.8 µM | GI50 [35] 2.93 µM | GI50 [36] 2.04 µM | GI50 [54] 2.5 µM | GI50 [55] 2.48 µM | GI50 [37] 3.41 µM | GI50 [38] 1.83 µM | GI50 [39] 1.7 µM | GI50 [40] 3.06 µM | GI50 [41] 2.46 µM | GI50 [56] 1.71 µM | GI50 [42] 3.03 µM | GI50 [57] 1.7 µM
4.63 µM: TGI [23]
5.23 µM: TGI [1]
5.47 µM: TGI [39]
2.99 µM: TGI [46] | TGI [22]
9.52 µM: TGI [26]
5.18 µM: TGI [17]
7.78 µM: TGI [36]
3.99 µM: TGI [49] | TGI [38]
4.87 µM: TGI [2]
9.44 µM: TGI [19]
4.29 µM: TGI [14]
5.72 µM: TGI [54]
4.14 µM: TGI [28]
3.84 µM: TGI [34]
6.73 µM: TGI [55]
7.9 µM: TGI [56]
5.97 µM: TGI [20]
4.96 µM: TGI [45]
active: GI50 [28] 0.37 µM
8.26 µM: TGI [44]
32.7 µM: TGI [33]
3.33 µM: TGI [57]
6.61 µM: TGI [41]
5.07 µM: TGI [51]
4.12 µM: TGI [30]
3.59 µM: TGI [5]
10.9 µM: TGI [48]
3.21 µM: TGI [32]
3.8 µM: TGI [52]
7.94 µM: TGI [47]
3.87 µM: TGI [6]
3.11 µM: TGI [4]
4.43 µM: TGI [7]
4.11 µM: TGI [53]
3.2 µM: TGI [21]
